Measured values as given in US11331327B2, “Antibacterial use of halogenated salicylanilides” (UNION therapeutics A/S, priority 2014, dated 2022).
In brackets after ≈: the same amount, converted by molar mass.

System: S. aureus clinical isolates and S. aureus ATCC 29213
Assay: MIC assay according to CLSI criteria, Example 2, S. aureus strains
Type: cell-based, Staphylococcus aureus
Conditions: Staphylococcus aureus
Description: Strains were conserved in Luria Bertani (LB) Broth (S. aureus) or Brain Heart Infusion (BHI) (S. pyogenes) supplemented with glycerol 15% (v/v) at −80° C., and reactivated by isolation on LB (S. aureus) or BHI (S. pyogenes) agar plates. Strains were cultivated in Mueller Hinton (MH) Broth-cation adjusted (S. aureus) or BHI (S. pyogenes). All strains were cultivated aerobically (microaerobically for S. pyogenes strains) at 37° C.
Bacterial cultures were stopped in their exponential growth phase and plates were inoculated with the approximate concentration of 5×10^5 cells per well. Plates were incubated at 37° C. for 18 hours (S. aureus) or 24 hours (S. pyogenes).

C=C[C@]1(C)C[C@@H](OC(=O)CS[C@@H]2C[C@H]3CC[C@@H](C2)N3C)[C@]2(C)[C@H](C)CC[C@]3(CCC(=O)[C@H]32)[C@@H](C)[C@@H]1O [Retapamulin]
MIC (ATCC 29213 / MRSA, strain MRSA 15): 0.06 µg/mL (≈ 0.116 µM)
MIC (ATCC 29213 / MRSA, strain MRSA 16): 0.06 µg/mL (≈ 0.116 µM)
MIC (ATCC 29213 / MRSA, strain MRSA 17): 0.03 µg/mL (≈ 0.0579 µM)
MIC (ATCC 29213 / MRSA, strain MRSA 18): 0.06 µg/mL (≈ 0.116 µM)
MIC (ATCC 29213 / MRSA, strain MRSA 19): 0.03 µg/mL (≈ 0.0579 µM)
MIC (ATCC 29213 / MRSA, strain MRSA 20): 0.06 µg/mL (≈ 0.116 µM)
MIC (ATCC 29213 / MRSA, strain MRSA 21): 0.125 µg/mL (≈ 0.241 µM)
MIC (ATCC 29213 / MRSA, strain MRSA 22): 0.06 µg/mL (≈ 0.116 µM)
MIC (ATCC 29213 / MRSA, strain MRSA 23): 0.06 µg/mL (≈ 0.116 µM)
MIC (ATCC 29213 / MRSA, strain MRSA 24): 0.06 µg/mL (≈ 0.116 µM)
MIC (ATCC 29213 / MRSA, strain MRSA 25): 0.06 µg/mL (≈ 0.116 µM)
MIC (ATCC 29213 / MRSA, strain MRSA 26): 0.06 µg/mL (≈ 0.116 µM)
MIC (ATCC 29213 / MRSA, strain MRSA 27): 0.06 µg/mL (≈ 0.116 µM)
MIC (ATCC 29213 / MRSA, strain MRSA 27b): 0.02 µg/mL (≈ 0.0386 µM)
MIC (ATCC 29213 / MRSA, strain MRSA 28): 0.03 µg/mL (≈ 0.0579 µM)
MIC (ATCC 29213 / MRSA, strain MRSA 29): 0.06 µg/mL (≈ 0.116 µM)
MIC (ATCC 29213 / MRSA, strain MRSA 30): 0.03 µg/mL (≈ 0.0579 µM)
MIC (ATCC 29213 / MRSA, strain MRSA 31): 16 µg/mL (≈ 30.9 µM)
MIC (ATCC 29213 / MRSA, strain MRSA 32): 0.06 µg/mL (≈ 0.116 µM)
MIC (ATCC 29213 / MRSA, strain MRSA 33): 0.06 µg/mL (≈ 0.116 µM)
MIC (ATCC 29213 / MRSA, strain MRSA 34): 0.06 µg/mL (≈ 0.116 µM)
MIC (ATCC 29213 / MRSA, strain MRSA 35): 0.03 µg/mL (≈ 0.0579 µM)
MIC (ATCC 29213 / MRSA, strain MRSA 36): 0.06 µg/mL (≈ 0.116 µM)
MIC (ATCC 29213 / MRSA, strain MRSA 37): 0.06 µg/mL (≈ 0.116 µM)
MIC (ATCC 29213 / MRSA, strain MRSA 38): 0.06 µg/mL (≈ 0.116 µM)
MIC (ATCC 29213 / MRSA, strain MRSA 39): 0.06 µg/mL (≈ 0.116 µM)
MIC (ATCC 29213 / MRSA, strain MRSA 40): 0.03 µg/mL (≈ 0.0579 µM)
MIC (ATCC 29213 / MRSA, strain MRSA 41): 0.02 µg/mL (≈ 0.0386 µM)
MIC (ATCC 29213 / MRSA, strain MRSA 42): 0.06 µg/mL (≈ 0.116 µM)
MIC (ATCC 29213 / MRSA, strain MRSA 43): 0.06 µg/mL (≈ 0.116 µM)
MIC (ATCC 29213 / MRSA, strain MRSA 44): 0.02 µg/mL (≈ 0.0386 µM)
MIC (ATCC 29213 / MRSA, strain MRSA 45): 0.02 µg/mL (≈ 0.0386 µM)
MIC (ATCC 29213 / MRSA, strain MRSA 46): 0.02 µg/mL (≈ 0.0386 µM)
MIC (ATCC 29213 / MRSA, strain MRSA 47): 0.02 µg/mL (≈ 0.0386 µM)
MIC (ATCC 29213 / MRSA, strain MRSA 48): 0.02 µg/mL (≈ 0.0386 µM)
MIC (ATCC 29213 / MRSA, strain MRSA 49): 0.02 µg/mL (≈ 0.0386 µM)
MIC (ATCC 29213 / MRSA, strain MRSA 50): 0.02 µg/mL (≈ 0.0386 µM)
MIC (ATCC 29213 / MRSA, strain MRSA 51): 0.03 µg/mL (≈ 0.0579 µM)
MIC (ATCC 29213 / MRSA, strain MRSA 52): 0.02 µg/mL (≈ 0.0386 µM)
MIC (ATCC 29213 / MRSA, strain MRSA 53): 0.03 µg/mL (≈ 0.0579 µM)
MIC (ATCC 29213 / MRSA, strain MRSA 54): 0.03 µg/mL (≈ 0.0579 µM)
MIC (ATCC 29213 / MRSA, strain MRSA 55): 0.02 µg/mL (≈ 0.0386 µM)
MIC (ATCC 29213 / MRSA, strain MRSA 56): < 0.01 µg/mL
MIC (ATCC 29213 / MRSA, strain MRSA 57): 0.02 µg/mL (≈ 0.0386 µM)
MIC (ATCC 29213 / MRSA, strain MRSA 58): 0.02 µg/mL (≈ 0.0386 µM)
MIC (ATCC 29213 / MRSA, strain MRSA 59): 0.02 µg/mL (≈ 0.0386 µM)
MIC (ATCC 29213 / MRSA, strain MRSA 60): 0.02 µg/mL (≈ 0.0386 µM)
MIC (ATCC 29213 / MRSA, strain MRSA 61): 0.02 µg/mL (≈ 0.0386 µM)
MIC (ATCC 29213 / MRSA, strain MRSA 62): 0.02 µg/mL (≈ 0.0386 µM)
MIC (ATCC 29213 / MRSA, strain MRSA 63): 0.02 µg/mL (≈ 0.0386 µM)
MIC (ATCC 29213 / MRSA, strain MRSA 64): 0.02 µg/mL (≈ 0.0386 µM)
MIC (ATCC 29213 / MRSA, strain MRSA 65): 0.02 µg/mL (≈ 0.0386 µM)
MIC (ATCC 29213 / MRSA, strain MRSA 66): 0.02 µg/mL (≈ 0.0386 µM)
MIC (ATCC 29213 / MRSA, strain MRSA 67): 0.02 µg/mL (≈ 0.0386 µM)
MIC (ATCC 29213 / MRSA, strain MRSA 68): 0.02 µg/mL (≈ 0.0386 µM)
MIC (ATCC 29213 / MRSA, strain MRSA 69): < 0.01 µg/mL
MIC (ATCC 29213 / MRSA, strain MRSA 70): 0.02 µg/mL (≈ 0.0386 µM)
MIC (ATCC 29213 / MRSA, strain MRSA 71): < 0.01 µg/mL
MIC (ATCC 29213 / MRSA, strain MRSA 72): 0.03 µg/mL (≈ 0.0579 µM)
MIC (ATCC 29213 / MRSA, strain MRSA 73): 0.03 µg/mL (≈ 0.0579 µM)
MIC (ATCC 29213 / MRSA, strain MRSA 74): 0.03 µg/mL (≈ 0.0579 µM)
MIC (ATCC 29213 / MRSA, strain MRSA 75): 0.03 µg/mL (≈ 0.0579 µM)
MIC (ATCC 29213 / MRSA, strain MRSA 76): 0.03 µg/mL (≈ 0.0579 µM)
MIC (ATCC 29213 / MRSA, strain MRSA 77): 0.03 µg/mL (≈ 0.0579 µM)
MIC (ATCC 29213 / MRSA, strain MRSA 78): 0.03 µg/mL (≈ 0.0579 µM)
MIC (ATCC 29213 / MRSA, strain MRSA 79): < 0.01 µg/mL
MIC (ATCC 29213 / MRSA, strain MRSA 80): 0.02 µg/mL (≈ 0.0386 µM)
MIC (ATCC 29213 / MRSA, strain MRSA 81): 0.03 µg/mL (≈ 0.0579 µM)
MIC (ATCC 29213 / MRSA, strain MRSA 82): 0.03 µg/mL (≈ 0.0579 µM)
MIC (ATCC 29213 / MRSA, strain MRSA 83): 0.03 µg/mL (≈ 0.0579 µM)
MIC (ATCC 29213 / MRSA, strain MRSA 84): 0.03 µg/mL (≈ 0.0579 µM)
MIC (ATCC 29213 / MRSA, strain MRSA 85): 0.03 µg/mL (≈ 0.0579 µM)
MIC (ATCC 29213 / MRSA, strain MRSA 86): 0.03 µg/mL (≈ 0.0579 µM)
MIC (ATCC 29213 / MRSA, strain MRSA 87): 0.02 µg/mL (≈ 0.0386 µM)
MIC (ATCC 29213 / MRSA, strain MRSA 88): 0.03 µg/mL (≈ 0.0579 µM)
MIC (ATCC 29213 / MRSA, strain MRSA 89): 0.02 µg/mL (≈ 0.0386 µM)
MIC (ATCC 29213 / MRSA, strain MRSA 90): 0.06 µg/mL (≈ 0.116 µM)
MIC (ATCC 29213 / MRSA, strain MRSA 91): 0.06 µg/mL (≈ 0.116 µM)
MIC (ATCC 29213 / MRSA, strain MRSA 92): 0.06 µg/mL (≈ 0.116 µM)
MIC (ATCC 29213 / MRSA, strain MRSA 93): 0.02 µg/mL (≈ 0.0386 µM)
MIC (ATCC 29213 / MRSA, strain MRSA 94): 0.03 µg/mL (≈ 0.0579 µM)
MIC (ATCC 29213 / MRSA, strain MRSA 95): 0.03 µg/mL (≈ 0.0579 µM)
MIC (ATCC 29213 / MRSA, strain MRSA 96): 0.03 µg/mL (≈ 0.0579 µM)
MIC (ATCC 29213 / MRSA, strain MRSA 97): 0.03 µg/mL (≈ 0.0579 µM)
MIC (ATCC 29213 / MRSA, strain MRSA 98): 0.03 µg/mL (≈ 0.0579 µM)
MIC (ATCC 29213 / MRSA, strain MRSA 99): 0.03 µg/mL (≈ 0.0579 µM)
MIC (ATCC 29213 / MRSA, strain MRSA 100): 1 µg/mL (≈ 1.93 µM)
MIC (ATCC 29213 / MRSA, strain MRSA 101): 0.03 µg/mL (≈ 0.0579 µM)
MIC (ATCC 29213 / MRSA, strain MRSA 102): 0.03 µg/mL (≈ 0.0579 µM)
MIC (ATCC 29213 / MRSA, strain MRSA 103): 0.03 µg/mL (≈ 0.0579 µM)
MIC (ATCC 29213 / MRSA, strain MRSA 104): 0.03 µg/mL (≈ 0.0579 µM)
MIC (ATCC 29213 / MRSA, strain MRSA 105): 0.03 µg/mL (≈ 0.0579 µM)
MIC (ATCC 29213 / MRSA, strain MRSA 106): 0.06 µg/mL (≈ 0.116 µM)
MIC (ATCC 29213 / MRSA, strain MRSA 107): 0.06 µg/mL (≈ 0.116 µM)
MIC (ATCC 29213 / MRSA, strain MRSA 108): 0.03 µg/mL (≈ 0.0579 µM)
MIC (ATCC 29213 / MRSA, strain MRSA 109): 0.03 µg/mL (≈ 0.0579 µM)
MIC (ATCC 29213 / MRSA, strain MRSA 110): 0.03 µg/mL (≈ 0.0579 µM)
MIC (ATCC 29213 / MRSA, strain MRSA 111): 0.03 µg/mL (≈ 0.0579 µM)
MIC (ATCC 29213 / MRSA, strain MRSA 112): 0.03 µg/mL (≈ 0.0579 µM)
MIC (ATCC 29213 / MRSA, strain MRSA 113): 0.03 µg/mL (≈ 0.0579 µM)
MIC (ATCC 29213 / MSSA, strain MSSA 01): 0.03 µg/mL (≈ 0.0579 µM)
MIC (ATCC 29213 / MSSA, strain MSSA 02): 0.03 µg/mL (≈ 0.0579 µM)
MIC (ATCC 29213 / NEWMAN, strain Newman): 0.03 µg/mL (≈ 0.0579 µM)
